The NIST ThermoML archive (doi:10.1016/j.jct.2004.09.015)

Settings: Liquid, Closed cell (Static) method

CC(=O)N(C)C [N,N-dimethylethanamide]
Settings | vapor or sublimation pressure [kPa]
323.15 K | 1.158
333.15 K | 1.982
343.15 K | 3.271
353.15 K | 5.193
363.15 K | 8
373.15 K | 12
383.15 K | 17.55
393.15 K | 25.03
403.15 K | 35.04
413.15 K | 48.09
423.15 K | 64.73
